Test results from patent US6727266B2, “Substituted tryptophan derivatives” (Shionogi & Co., Ltd., priority 2000, dated 2004).

Columns and labels:
MMP-9 = target: T1, MMP-9 (Homo sapiens, UniProt P14780); experiment: Assay for inhibitory activities on MMP-9 (fluorogenic MOCAc peptide substrate); type: biochemical; details: MMP-9 purified from human fibrosarcoma HT1080 cells, activated by TPCK-Trypsin
T1 construct: made in house; host or cells: Endogenous secretion by human fibrosarcoma HT1080 cells (ATCC) treated with TPA; purified from the culture medium
T1 sequence (P14780 107-707 limits assumed): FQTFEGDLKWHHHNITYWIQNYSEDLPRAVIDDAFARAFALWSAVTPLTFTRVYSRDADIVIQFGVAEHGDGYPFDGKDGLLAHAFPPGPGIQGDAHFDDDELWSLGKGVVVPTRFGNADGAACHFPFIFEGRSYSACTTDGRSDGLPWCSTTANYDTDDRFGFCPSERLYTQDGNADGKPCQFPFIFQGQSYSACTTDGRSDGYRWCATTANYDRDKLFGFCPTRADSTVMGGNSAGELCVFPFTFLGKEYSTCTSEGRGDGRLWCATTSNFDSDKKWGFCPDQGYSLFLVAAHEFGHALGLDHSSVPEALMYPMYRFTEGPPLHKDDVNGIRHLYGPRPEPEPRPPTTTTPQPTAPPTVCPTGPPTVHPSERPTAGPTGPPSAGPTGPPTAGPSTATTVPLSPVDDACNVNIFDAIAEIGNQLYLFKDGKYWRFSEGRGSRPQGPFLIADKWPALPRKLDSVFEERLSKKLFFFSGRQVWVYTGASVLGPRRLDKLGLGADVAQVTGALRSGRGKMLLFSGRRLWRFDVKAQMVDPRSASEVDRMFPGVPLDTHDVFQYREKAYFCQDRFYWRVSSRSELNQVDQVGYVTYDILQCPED
Text: MMP-9 was purified by using a combination of procedures described in the method descrived in Y. Okada et al. (Yasunori Okada, Yukio Gonoji, Katsumi Naka, Katsuro Tomita, Isao Nakanishi, Kazushi Iwata and Taro Hayakawa: Matrix metalloproteinase 9 (92-kDa gelatinase/type IV collagenase) from HT1080 human fibrosarcoma cells. Purification and activation of the precursor and enzymic properties. J. Biol. Chem., 267 (1992) 21712-21719 and the other method (1) Yasunori Okada, Tatsuhisa Morodomi, Jan J, Enghild, Ko Suzuki, Atsushi Yasui, Isao Nakanishi, Guy Salvesen and Hideaki Nagase: Matrix metalloproteinase 2 from human rheumatoid synovial fibroblasts. Purification and activation of the precursor and enzymic properties. Eur. J. Biochem. 194 (1990) 721-730 or (2) Robin V Ward, Rosalind M Hembry, John J Reynolds and Gillian Murphy: The purification of tissue inhibitor of metalloproteinase-2 from its 72 kDa progelatinase complex. Biochem. J. 278 (1991) 179-187. Briefly, human fibrosarcoma ATCC HT1080 cell line was cultured to confluent in Dulbecco's Modified Medium (DMEM) containing 10% fetal-calf serum (FCS) at 37° C. for 48 hours (5%). Further, Confluent Cell was cultured in DMEM removed FCS (2nd). To obtain MMP-9, Phorbol-12-myristate-13-acetate (TPA) was added to this DMEM medium at a concentration of 50 ng/ml. The TPA treated medium was centrifuged at 3000 rpm for 15 min and the supernatant was concentrated to 450 ml by a Toyo-Roshi UP-20 apparatus with an ultrafiltration membrane. Then, this concentrated solution was purified by Gelatin-Sepharose and Concanavalin A-Sepharose. The pool containing MMP-9 was dialyzed, concentrated (Toyo-Roshi UP-20) and applied to columns of Sephacryl S-200 and Green A matrix for the separation from TIMP. The obtained Procollagenase was activated by TPCK-Trypsin (final conc. 3 μg/μl reaction mix.) for the assay.
(§1) The enzymatic activity on each MMP was analyzed by the method described in “C Graham Knight, Frances Willenbrock and Gillian Murphy: A novel coumarin-labelled peptide for sensitive continuous assays of the matrix metalloproteinases: FEBS LETT., 296, (1992), 263-266”. The substrate: MOCAc-Pro-Leu-Gly-Leu-A2Pr(DNP)-Ala-Arg-NH2 was purchased from Peptide Institute, Inc., Osaka, Japan.
(§2) The measurement of the inhibitory activities of a compound (inhibitor) was carried out by the following four methods;
(§3) A) Reaction with substrate, enzyme (MMPs) and inhibitor
(§4) B) Reaction with substrate and inhibitor, without enzyme
(§5) C) Reaction with substrate and enzyme (MMPs), without inhibitor
(§6) D) Reaction with substrate only
(§7) Each fluorescence values of above four methods was measured and % inhibition was calculated by using the following formula.
(§8) % inhibition={1−(A−B)/(C−D)}×100
(§9) IC50 means the concentration required to inhibit 50% of the enzyme activity.

MMP-2 = target: T2, MMP-2 (Homo sapiens, UniProt P08253); experiment: Assay for inhibitory activities on MMP-2 (fluorogenic MOCAc peptide substrate); type: biochemical; details: MMP-2 purchased from Calbiochem-Novabiochem
T2 construct: purchased Calbiochem-Novabiochem International, Inc
T2 sequence (P08253 110-660): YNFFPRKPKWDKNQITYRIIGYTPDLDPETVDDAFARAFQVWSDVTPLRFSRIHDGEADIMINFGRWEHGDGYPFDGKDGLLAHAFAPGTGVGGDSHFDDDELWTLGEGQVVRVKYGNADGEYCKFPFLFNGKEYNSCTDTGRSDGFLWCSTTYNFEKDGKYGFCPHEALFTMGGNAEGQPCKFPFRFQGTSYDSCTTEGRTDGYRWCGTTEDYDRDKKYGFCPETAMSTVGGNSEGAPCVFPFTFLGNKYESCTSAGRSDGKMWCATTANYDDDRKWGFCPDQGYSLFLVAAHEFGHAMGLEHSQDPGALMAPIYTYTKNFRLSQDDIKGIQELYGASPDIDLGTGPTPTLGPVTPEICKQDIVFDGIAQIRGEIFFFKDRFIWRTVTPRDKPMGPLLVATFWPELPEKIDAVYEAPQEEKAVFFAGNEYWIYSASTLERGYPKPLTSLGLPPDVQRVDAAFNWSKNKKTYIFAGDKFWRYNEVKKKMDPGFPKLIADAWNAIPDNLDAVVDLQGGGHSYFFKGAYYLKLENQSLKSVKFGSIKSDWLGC
Description: MMP-2 was purchased from Calbiochem-Novabiochem International, Inc.
as §1, §2, §3, §4, §5, §6, §7, §8, §9

With `COc1ccc2[nH]cc(C[C@@H](NS(=O)(=O)c3ccc(C#Cc4ccc(C)cc4)s3)C(=O)O)c2c1` [Compound A-2] the IC50 (MMP-9) was 15.6 nM and the IC50 (MMP-2) was 10.6 nM.

With `Cc1ccc(C#Cc2ccc(S(=O)(=O)N[C@H](Cc3c[nH]c4cccc(O)c34)C(=O)O)s2)cc1` [Compound A-4] the IC50 (MMP-9) was 24.3 nM and the IC50 (MMP-2) was 0.768 nM.

Compound `O=C(O)[C@H](Cc1c[nH]c2ccc(F)cc12)NS(=O)(=O)c1ccc(-c2ccc(N3CCCC3)cc2)s1` [Compound A-10] has an IC50 (MMP-9) of 12 nM and an IC50 (MMP-2) of 4.04 nM.

In the case of `COc1cccc2[nH]cc(C[C@@H](NS(=O)(=O)c3ccc(C#Cc4ccc(C)cc4)s3)C(=O)O)c12` [Compound A-3], the IC50 (MMP-9) is reported as 174 nM and the IC50 (MMP-2) is reported as 22.8 nM.

Compound `Cc1ccc(C#Cc2ccc(S(=O)(=O)N[C@@H](Cc3c[nH]c4ccc(F)cc34)C(=O)O)s2)cc1` [Compound A-6] has an IC50 (MMP-9) of 848 nM and an IC50 (MMP-2) of 90.8 nM.

Work on `O=C(O)[C@H](Cc1c[nH]c2ccc(F)cc12)NS(=O)(=O)c1ccc(-c2nnn(-c3ccccc3)n2)cc1` [Compound A-12] yielded an IC50 (MMP-9) of 1420 nM and an IC50 (MMP-2) of 85.8 nM.

For `O=C(O)[C@@H](Cc1c[nH]c2ccc(F)cc12)NS(=O)(=O)c1ccc(-c2ccc(N3CCCC3)cc2)s1` [Compound A-9], the IC50 (MMP-9) was 0.534 nM and the IC50 (MMP-2) was 0.137 nM.

`Cc1ccc(C#Cc2ccc(S(=O)(=O)N[C@H](Cc3c[nH]c4c(O)cccc34)C(=O)O)s2)cc1` [Compound A-5] showed an IC50 (MMP-9) of 6.49 nM and an IC50 (MMP-2) of 1.21 nM.

For `Cc1ccc(C#Cc2ccc(S(=O)(=O)N[C@H](Cc3c[nH]c4ccc(O)cc34)C(=O)O)s2)cc1` [Compound A-1], the melting point was 200 to 202 °C (dec.), the IC50 (MMP-9) was 2.44 nM and the IC50 (MMP-2) was 0.223 nM.

In the case of `COc1ccc(-n2nnc(-c3ccc(S(=O)(=O)N[C@H](Cc4c[nH]c5ccc(OC)cc45)C(=O)O)cc3)n2)cc1` [Compound A-11], the IC50 (MMP-9) is reported as 16 nM and the IC50 (MMP-2) is reported as 5.77 nM.

`COc1ccc2[nH]cc(C[C@@H](NS(=O)(=O)c3ccc(-c4ccc(N(C)C)cc4)s3)C(=O)O)c2c1` [Compound A-8] showed an IC50 (MMP-9) of 6.66 nM and an IC50 (MMP-2) of 0.617 nM.
